Like-named read-outs stand apart in the source and are kept apart here.
What was measured:
[1] = experimental, cited from earlier work
[2] = RP-18 thin layer chromatography (RM); format: physicochemical; settings: RP-18 F254s TLC, acetonitrile/pH 7.4 phosphate buffered saline 70:30 (v/v); RM = log (1/Rf−1)
Protocol: Thin layer chromatography was performed according to [33] on 10 × 20 cm glass-backed RP-18 F254s TLC plates from Merck, Germany (layer thickness 0.25 mm). Before use, the plates were prewashed with methanol-dichloromethane 1:1 (v/v) and dried overnight in ambient conditions. […] The chromatographic plates were developed in a vertical chromatographic chamber lined with filter paper and previously saturated with the mobile phase vapor for 20 min. The mobile phase consisted of acetonitrile/pH 7.4 phosphate buffered saline 70:30 (v/v). The development distance was 95 mm from the plate bottom edge. After development, the plates were dried at room temperature and examined under UV light (254 nm) and with the Desaga CD60 densitometer (Multiwavelength Scan, 200–300 nm at 20 nm intervals). All chromatograms were repeated in duplicate, and the mean Rf values were used in further investigations. The chromatographic parameter RM considered in these investigations was defined by Bate-Smith and Westall: RM= log (1/Rf−1).

[3] = hydrocortisone esters 17 to 27, ref 40 (Anderson et al.)
[4] = nonsteroid compounds 39 to 46, source not given

Row | SMILES | logKp^exp ([1]; compounds 1 to 16) | RM [2] | other results
1 | C[C@]12CC[C@H]3[C@@H](CCC4=CC(=O)CC[C@@]43C)[C@@H]1CC[C@@H]2O [compound 12, Testosterone] | −2.65 | – | –
2 | C[C@]12CC[C@@H]3c4ccc(O)cc4CC[C@H]3[C@@H]1CCC2=O [compound 5, Estrone] | −2.44 | 0.09 | –
3 | CCCCCCCC(=O)OCC(=O)[C@@]1(O)CC[C@H]2[C@@H]3CCC4=CC(=O)CC[C@]4(C)[C@H]3[C@@H](O)C[C@@]21C [compound 27, HC octanoate] | – | – | logKp^exp [1, 3]: −1.21
4 | CC(=O)OCC(=O)[C@H]1CC[C@H]2[C@@H]3CCC4=CC(=O)CC[C@]4(C)[C@H]3CC[C@]12C [compound 30, Deoxycortisone acetate] | – | 0.41 | –
5 | C[C@]12CC[C@@H]3c4ccc(OC(=O)c5ccccc5)cc4CC[C@H]3[C@@H]1CC[C@@H]2O [compound 28, Estradiol benzoate] | – | 0.91 | –
6 | CC(C)Cc1ccc(C(C)C(=O)O)cc1 (centres unmarked) [compound 39, Ibuprofen] | – | 0.08 | logKp^exp [1, 4]: −1.44
7 | C[C@]12CCC(=O)C=C1CC[C@@H]1[C@@H]2C(=O)C[C@@]2(C)[C@H]1CC[C@]2(O)C(=O)CO [compound 16, Cortisone] | −5.00 | – | –
8 | C[C@]12C=CC(=O)C=C1CC[C@@H]1[C@@H]2[C@@H](O)C[C@@]2(C)[C@H]1CC[C@]2(O)C(=O)CO [compound 4, Prednisolone] | −4.35 | −0.33 | –
9 | COc1ccc2cc([C@H](C)C(=O)O)ccc2c1 [compound 46, Naproxen] | – | −0.16 | –
10 | C[C@@H]1C[C@H]2[C@@H]3CCC4=CC(=O)C=C[C@]4(C)[C@@]3(F)[C@@H](O)C[C@]2(C)[C@@]1(O)C(=O)CO [compound 1, Dexamethasone] | – | −0.35 | –
11 | CC(=O)[C@H]1CC[C@H]2[C@@H]3CCC4=CC(=O)CC[C@]4(C)[C@H]3CC[C@]12C [compound 3, Progesterone] | – | 0.60 | –
12 | C[C@]12CCC(=O)C=C1CC[C@@H]1[C@@H]2CC[C@@]2(C)[C@H]1CC[C@]2(C)O [compound 33, Methyltestosterone] | – | 0.41 | –
13 | C[C@]12CCC(=O)C=C1CC[C@@H]1[C@@H]2[C@@H](O)C[C@@]2(C)[C@H]1CC[C@]2(O)C(=O)COC(=O)CCCCCO [compound 23, HC 6-hydroxyhexanoate] | – | – | logKp^exp [1, 3]: −3.04
14 | CC(=O)OCC(=O)[C@@]1(O)CC[C@H]2[C@@H]3CCC4=CC(=O)CC[C@]4(C)[C@H]3[C@@H](O)C[C@@]21C [compound 29, HC acetate] | – | −0.12 | –
15 | COC(=O)CCCCCC(=O)OCC(=O)[C@@]1(O)CC[C@H]2[C@@H]3CCC4=CC(=O)CC[C@]4(C)[C@H]3[C@@H](O)C[C@@]21C [compound 25, HC methylpimelate] | – | – | logKp^exp [1, 3]: −2.27
16 | CC(=O)Oc1ccccc1C(=O)O [compound 41, Aspirin] | – | −0.50 | logKp^exp [1, 4]: −2.14
17 | C[C@]12CCC(=O)C=C1CC[C@@H]1[C@@H]2[C@@H](O)C[C@]2(C=O)[C@@H](C(=O)CO)CC[C@@H]12 [compound 6, Aldosterone] | −4.41 | – | –
18 | O=C(O)c1ccccc1O [compound 43, Salicylic acid] | – | −0.37 | logKp^exp [1, 4]: −2.84

Row | SMILES | logKp^exp ([1]; compounds 1 to 16) | RM [2] | other results
19 | C#C[C@]1(O)CC[C@H]2[C@@H]3[C@H](C)CC4=C(CCC(=O)C4)[C@H]3CC[C@@]21C [compound 38, Tibolone] | – | 0.33 | –
20 | C[C@]12CCC(=O)C=C1CC[C@@H]1[C@@H]2[C@@H](O)C[C@@]2(C)[C@H]1CC[C@]2(O)C(=O)CO [compound 2, Hydrocortisone] | −4.79 | −0.33 | –
21 | CCCCCCC(=O)O[C@H]1CC[C@H]2[C@@H]3CCC4=CC(=O)CC[C@]4(C)[C@H]3CC[C@]12C [compound 34, Testosterone enanthate] | – | 1.38 | –
22 | C[C@]12CC[C@@H]3c4ccc(O)cc4CC[C@H]3[C@@H]1CC[C@@H]2O [compound 14, Estradiol] | −2.21 | – | –
23 | CC(=O)[C@H]1CC[C@H]2[C@@H]3CC=C4C[C@@H](O)CC[C@]4(C)[C@H]3CC[C@]12C [compound 8, Pregnenolone] | −2.82 | – | –
24 | CN1C(C(=O)Nc2ccccn2)=C(O)c2ccccc2S1(=O)=O [compound 45, Piroxicam] | – | 0.00 | logKp^exp [1, 4]: −3.81
25 | COC(=O)[C@@H]1CC2=CC(=O)CC[C@]2(C)[C@@]23O[C@@H]2C[C@@]2(C)[C@@H](CC[C@@]24CCC(=O)O4)[C@H]13 [compound 36, Eplerenone] | – | −0.21 | –
26 | CC(=O)S[C@@H]1CC2=CC(=O)CC[C@]2(C)[C@H]2CC[C@@]3(C)[C@@H](CC[C@@]34CCC(=O)O4)[C@H]12 [compound 35, Spironolactone] | – | 0.14 | –
27 | CC(=O)OCC(=O)[C@@]1(O)CC[C@H]2[C@@H]3CCC4=CC(=O)CC[C@]4(C)[C@H]3C(=O)C[C@@]21C [compound 31, Cortisone acetate] | – | −0.12 | –
28 | COc1ccc2c(c1)c(CC(=O)O)c(C)n2C(=O)c1ccc(Cl)cc1 [compound 44, Indomethacin] | – | −0.07 | –
29 | CC(=O)[C@@]1(O)CC[C@H]2[C@@H]3CCC4=CC(=O)CC[C@]4(C)[C@H]3CC[C@@]21C [compound 9, 17-α-Hydroxyprogesterone] | −3.22 | – | –
30 | CNC(=C[N+](=O)[O-])NCCSCc1ccc(CN(C)C)o1 [compound 40, Ranitidine] | – | −0.66 | –
31 | C[C@]12CCC(=O)C=C1CC[C@@H]1[C@@H]2CC[C@@]2(C)[C@H]1CC[C@]2(O)C(=O)CO [compound 13, Cortexolone] | −4.12 | – | –
32 | CCCCCC(=O)OCC(=O)[C@@]1(O)CC[C@H]2[C@@H]3CCC4=CC(=O)CC[C@]4(C)[C@H]3[C@@H](O)C[C@@]21C [compound 26, HC hexanoate] | – | – | logKp^exp [1, 3]: −1.74
33 | C[C@]12CC[C@H]3[C@@H](CCC4=CC(=O)CC[C@@]43C)[C@@H]1CC[C@@H]2C(=O)CO [compound 11, Deoxycorticosterone] | −3.34 | – | –
34 | CCC(=O)O[C@H]1CC[C@H]2[C@@H]3CCC4=CC(=O)CC[C@]4(C)[C@H]3CC[C@]12C [compound 32, Testosterone propionate] | – | 0.85 | –
35 | C[C@H]1O[C@@H](O[C@H]2[C@@H](O)C[C@H](O[C@H]3[C@@H](O)C[C@H](O[C@H]4CC[C@@]5(C)[C@H](CC[C@@H]6[C@@H]5C[C@@H](O)[C@]5(C)[C@@H](C7=CC(=O)OC7)CC[C@]65O)C4)O[C@@H]3C)O[C@@H]2C)C[C@H](O)[C@@H]1O [compound 37, Digoxin] | – | −0.91 | –
36 | COC(=O)c1ccc(O)cc1 [compound 42, Methylparaben] | – | −0.41 | logKp^exp [1, 4]: −2.04

Reference: article PMC8308496, “RP-18 TLC Chromatographic and Computational Study of Skin Permeability of Steroids” (Pharmaceuticals, 2021)
